Test results: patent publication US20250339409A1, “USES OF PAN BET INHIBITORS” (VYNE THERAPEUTICS INC., priority 2021, published 2025)
In brackets after ≈: the same amount, converted by molar mass. Several values for one entry are separate records, joined by “and”; a condition that tells them apart may be missing. Equal entries are not always repeated. Where two headings read alike, the source gives them in different places.

Key:
TRP-1 = assay: RHE vitiligo model: melanocyte localization after TRP-1 immunostaining; type: cell-based, human; conditions: for Mean per RHE (%): RHE1-3
Procedure: TRP-1 (tyrosinase related protein-1) is a melanocyte specific protein and a member of the tyrosinase gene family which also includes tyrosinase. It is very often used as specific marker of melanocytes. To visualize and quantify the melanocytes within the epidermis, sections of epidermis (6 μm thick) prepared from epidermis embedded in paraffin are used for TRP-1 immunostaining.
After deparaffination and re-hydration, antigen unmasking is performed by heating in citrate ph6 buffer. Samples are then saturated with goat serum, in order to avoid unspecific labelling.
Samples are incubated overnight, at 4° C., with a primary antibody raised against human TRP-1 (Abcam; Ab235447). After washing, the samples are incubated (for 30 minutes, at room temperature) with a secondary antibody anti-rabbit coupled to Alexa Fluor 488 dye (Thermo Fisher Scientific; A-11008). Samples are then incubated with DAPI or 4′,6′-diamidino-2-phenylindole (Thermo Fisher Scientific, D1306), a fluorescent molecule able of binding to the adenine and thymine bases of DNA and slides are mounted with specific medium, before taking the images. For each tissue/sample, 1 slide section is used to make 3 images. Images are taken using a Nikon Eclipse (Ni-E) photomicroscope coupled to a numerical camera (DS-Ri2). Quantification of the protein is performed with NIS-Element AR software (Nikon). The detection thresholds are firstly determined, using the most marked slices, in order to avoid saturation of detection. For each image, a region of interest (ROI) is delimited manually (including only the basal layers of epidermis which are supposed to contain the melanocytes) and its surface was measured. The software then measures the marked area within the delimited area, in number of pixels. The mean intensity of the marked surface multiplied by the “marked surface” determines the staining for the given ROI. This value is then normalized for a given surface by dividing the staining value by the surface of the ROI.
Formulations containing four doses of BETi1 the BETi1 vehicle (placebo), were evaluated in RHE TNF-α/IFN-γ vitiligo model as described in Experimental section Method G and representative images of RHE after TRP-1 staining are shown in FIG. 7A and respective quantification with and without normalization are shown in Table 19 and Table 20 and FIGS. 7B and FIG. 7C respectively. The stimulation with the cytokine cocktail (TNF-α and IFN- ? ) in accordance with Part A and B, reduced the expression of TRP-1 and thus the abundance of melanocytes in the basal layers of the RHE, confirming the melanocytorhagy. In the model, stimulated treated with the vehicle induced a significant […] of TRP-1 abundance as compared to the stimulated untreated control. Without being bound by any theory the barrier effect provided by petrolatum in the vehicle, which increases skin hydration, has some effect on retention of melanocytes in the basal layer. […] A dose response could clearly be observed with the BETi1 formulation, with a tendency to the increase for the dose of 0.1% and with the two last concentrations being not significant. The effects of the ruxolitinib cream at 1% could not be assessed given that the sections have detached from the glass slides during the immunostaining process (probably without being bound by any theory may be due to the bad structure of the epidermis).

[1] = Solubility of BETi1 in solutions of hydroxypropyl-β-cyclodextrin in saline (HPLC); type: physicochemical; conditions: for solubility: aqueous with cosolvent or surfactant or cyclodextrin, thermodynamic from solid, 25° C., HPLC, read-out: Approximate solubility
Procedure: Saline is prepared by dissolving 0.9% of NaCl in water. 10% w/w or 20% w/w of hydroxypropyl-β-cyclodextrin (2HP-β-CD) is added to saline, sonicated for 1 minute, and mixed using magnetic stirrer until complete dissolution of 2HP-β-CD and a clear solution is obtained. Sufficient BETi1 is added to each 2HP-β-CD solution such that not all BETi1 is completely dissolved. The mixture is stirred with a magnetic stirrer at ambient conditions overnight (for at least 16 hours). The saturated samples, still containing solid phase, are filtered through a 0.45 μm filter and the filtrate is analyzed by HPLC.

[2] = test system: anti collagen antibodies induced arthritis (ACAIA); assay: ACAIA mice: histopathology of hind paws (tarsus); type: in vivo, Balb/c mice; parameters: key to Histology: Score / Histology: Score, MEAN: 0 = within normal limits, 1 minimal, 2 mild, 3 moderate, 4 severe; conditions: for Histology: Score, MEAN: group mean; for Histology: Bones / Histology: Cartilage / Histology: Joint space / Histology: Score / Histology: Soft tissue: individual animals;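 on all read-outs here: Mid-sagittal H&E-stained sections of mouse tarsus taken at study end, lesion severity graded from 0 (normal) to 4 (severe)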
Excerpt: At the end of the study, the mice are euthanized using pentobarbital sodium injection. Once euthanized, one hind paw of each animal is harvested and collected into vials containing 4% formalin for histology analysis.
The samples are sagittal sections of the right and left murine tarsus. The histology scoring is based on the severity of the lesions, taking into account both the number of infiltrating cells and the extent of cartilage and bone damage. To be classified as severe, a lesion has to show bone and cartilage damage (beyond degeneration for the latter). The scores are 0=within normal limits, 1-minimal, 2-mild, 3-moderate, 4-severe.
Statistics and data evaluation are primarily based on the mean values for body weight, arthritis clinical scoring and paw thickness measurements. Where appropriate, analysis of the data by one-way ANOVA followed by Dunnett's post-test is applied to determine the significance of treatment effects. All data for the histopathological analysis is presented as Mean±SEM. The treatment groups are compared to the Vehicle group (Group 1) or the contralateral hind paw using the Student's T-test. A p-value <0.05 is considered to represent a significant difference.
Histopathological analysis was conducted in accordance with Method B. Tissues from groups 1, 2, 3 and 7 were processed. Following decalcification, the tissues were cut mid-sagitally and were processed and sectioned for H & E staining. The histopathological analysis included an examination of the number of infiltrating cells and the extent of cartilage and bone damage.

[3] = BETi1 0.001%, stimulated RHE, without normalization to ROI
[4] = BETi1 1%, stimulated RHE, with normalization to ROI
[5] = BETi1 1%, stimulated RHE, without normalization to ROI
[6] = BETi1 10.001% [sic], stimulated RHE, with normalization to ROI
[7] = 1 mg/kg IA (Group 3), L paw (injected)
[8] = 1 mg/kg IA (Group 3), R paw (contralateral)
[9] = 10 mg/kg IA (Group 2), Mean±SEM
[10] = 10 mg/kg IA (Group 2), L paw (injected)
[11] = 10 mg/kg IA (Group 2), R paw (contralateral)
[12] = 1 mg/kg IA (Group 7), L paw (injected)
[13] = 1 mg/kg IA (Group 7), R paw (contralateral)

Question: Which results are given for Cn1cc(-c2cccc(O)c2Oc2ccccc2)c2cc[nH]c2c1=O [BETi1]?
Answer: Mean per condition (%) (TRP-1; [3]): 24%; Mean per RHE (%) (TRP-1; [3]): 21.6% and 27.0% and 22.1%; Mean per condition (%) (TRP-1; BETi1 0.01%, stimulated RHE, with normalization to ROI): 15%; Mean per condition (%) (TRP-1; BETi1 0.01%, stimulated RHE, without normalization to ROI): 20%; Mean per condition (%) (TRP-1; BETi1 0.1%, stimulated RHE, with normalization to ROI): 92%; Mean per condition (%) (TRP-1; BETi1 0.1%, stimulated RHE, without normalization to ROI): 120%; Mean per condition (%) (TRP-1; [4]): 149%; Mean per RHE (%) (TRP-1; [4]): 169% and 120% and 158%; Mean per condition (%) (TRP-1; [5]): 192%; Mean per RHE (%) (TRP-1; [5]): 220.8% and 151.1% and 203.4%; Mean per condition (%) (TRP-1; [6]): 17%; Mean per RHE (%) (TRP-1; [6]): 18% and 19% and 14%; TRP-1 in the basal layers (TRP-1; BETi1 formulation at 1%, stimulated RHE): TRP-1 is significantly increased in the basal layers; TRP-1 % staining relative to stimulated control, Mean per RHE (%) (TRP-1; Stimulated + BETi1 0.001%): 6% and 8%; TRP-1 % staining relative to stimulated control, Mean per condition (%) (TRP-1; Stimulated + BETi1 0.001%): 7%; TRP-1 % staining relative to stimulated control, Mean per condition (%) (TRP-1; Stimulated + BETi1 0.01%): 30%; TRP-1 % staining relative to stimulated control, Mean per condition (%) (TRP-1; Stimulated + BETi1 0.1%): 227%; TRP-1 % staining relative to stimulated control, Mean per condition (%) (TRP-1; Stimulated + BETi1 1%): 292%; amount of BETi1 fully dissolved ([1]; 10% HP-b-CD in saline, room temperature): below 4.3 mg/mL; solubility ([1]; 10% w/w hydroxypropyl-β-cyclodextrin in saline, 2HP-β-CD - Saline (10%:90%)): 4340 µg/mL (≈ 13.1 mM); solubility ([1]; 20% w/w hydroxypropyl-β-cyclodextrin in saline, 2HP-β-CD - Saline (20%:80%)): 8990 µg/mL (≈ 27 mM); mean histopathological score, treated left hind paw ([2]; 1 mg/kg IA (Group 3), Mean±SEM): 2.14±0.55 a.u.; Histology: Score, MEAN [2, 7]: 2.14; Histology: Bones [2, 7]: 3.5 and 2 and 0 (3×) and 3 and 4; Histology: Cartilage [2, 7]: 3.5 and 2 and 0 (3×) and 3 and 4; Histology: Joint space [2, 7]: 4 (4×) and 0 (3×); Histology: Score [2, 7]: 3.5 (3×) and 2.5 and 1 (2×) and 0; Histology: Soft tissue [2, 7]: 3 (2×) and 2.5 (2×) and 1 (2×) and 0; Histology: Score, MEAN [2, 8]: 3.57; Histology: Bones [2, 8]: 4 (5×) and 0 and 3.5; Histology: Cartilage [2, 8]: 4 (6×) and 0; Histology: Joint space [2, 8]: 4 (6×) and 0; Histology: Score [2, 8]: 4 (6×) and 1; Histology: Soft tissue [2, 8]: 4 (3×) and 1 and 3.5 (2×) and 3; histopathology findings, treated paws ([2]; 1 mg/kg IA (Group 3L), 3/7 cases): moderate to severe lesions with destruction of cartilage and bone; mean histopathological score, contralateral right hind paw [2, 9]: 4.00±0.00 a.u.; mean histopathological score, treated left hind paw [2, 9]: 0.33±0.21 a.u.; Histology: Score, MEAN ([2]; 10 mg/kg IA (Group 2), L paw (injected), **p < 0.01 vs Vehicle Group, ##p < 0.01 vs contralateral (Right) paw): 0.33**##; Histology: Bones [2, 10]: 0; Histology: Cartilage [2, 10]: 0; Histology: Joint space [2, 10]: 0; Histology: Score [2, 10]: 0 (4×) and 1 (2×); Histology: Soft tissue [2, 10]: 0 (4×) and 1 (2×); Histology: Score, MEAN [2, 11]: 4.00; Histology: Bones [2, 11]: 4; Histology: Cartilage [2, 11]: 4; Histology: Joint space [2, 11]: 4; Histology: Score [2, 11]: 4; Histology: Soft tissue [2, 11]: 4 (4×) and 3.5 (2×); histopathology findings, treated paws ([2]; 10 mg/kg IA (group 2L)): 4/6 were WNL

Question: For C[C@@H]1C[C@H]2[C@@H]3CCC4=CC(=O)C=C[C@]4(C)[C@@]3(F)[C@@H](O)C[C@]2(C)[C@@]1(O)C(=O)CO [dexamethasone, Dexamethasone, reference compound], which “Histology: Score, MEAN” value [2, 12] is on record?
Answer: 2.93

Question: What about the “Histology: Bones” value [2, 12] of the same compound?
Answer: 4 (2×) and 0 and 3 (3×) and 2.5

Question: And the “Histology: Cartilage” value [2, 12]?
Answer: 4 (2×) and 0 and 3 (2×) and 2.5 (2×)

Question: What about the “Histology: Joint space” value [2, 12] of the same compound?
Answer: 4 (6×) and 0

Question: And the “Histology: Score” value [2, 12]?
Answer: 4 (2×) and 1 and 3 (3×) and 2.5

Question: What about the “Histology: Soft tissue” value [2, 12] of the same compound?
Answer: 4 (2×) and 1.5 and 2 (2×) and 3 and 2.5

Question: And the “Histology: Score, MEAN” value [2, 13]?
Answer: 2.29

Question: And the “Histology: Bones” value [2, 13]?
Answer: 0 (3×) and 4 (4×)

Question: What about the “Histology: Cartilage” value [2, 13] of the same compound?
Answer: 0 (3×) and 4 (4×)

Question: And the “Histology: Joint space” value [2, 13]?
Answer: 0 (3×) and 4 (4×)

Question: What about the “Histology: Score” value [2, 13] of the same compound?
Answer: 0 (3×) and 4 (4×)

Question: What about the “Histology: Soft tissue” value [2, 13] of the same compound?
Answer: 0 (3×) and 4 (4×)
